# Test results as given in patent publication US11248013B2, “Tricyclic inhibitors of poly(ADP-ribose)polymerase” (Rakovina Therapeutics Inc., priority 2011, dated 2022).
# Target: PARP-1 (Homo sapiens (Human), UniProt P09874)
# Test: PARP-1 Enzyme Assay (HT Universal Colorimetric PARP Assay Kit)
# Type: biochemical
# Conditions: OD450, read-out: IC50 (PARP-1 inhibition)
# Description: Inhibition of PARP-1 enzymatic activities was measured using an HT Universal Colorimetric PARP Assay Kit (Trevigen, catalogue #4677-096-K) following the standard procedures.
# Serial dilutions of PARP compounds were added to appropriate wells. The compound was incubated with PARP enzyme at RT for 10 min, and the reaction was initiated by addition of the PARP substrate cocktail, Each concentration of compound was tested in triplicate wells. After 15 min reaction, the reaction was stopped, and the Strep-HRP was added into each well and incubated for 1 h at RT. After addition of TACS-Sapphire™ colorimetric substrate and incubated in dark for 15 min, the OD450 was read out with an EnVision instrument. IC50 values (the concentration at which 50% of the enzyme activity is inhibited) were calculated, which are determined over a range of different concentrations, normally from 10 μM to 0.1 nM.
# Chain of PARP-1 (P09874 whole entry): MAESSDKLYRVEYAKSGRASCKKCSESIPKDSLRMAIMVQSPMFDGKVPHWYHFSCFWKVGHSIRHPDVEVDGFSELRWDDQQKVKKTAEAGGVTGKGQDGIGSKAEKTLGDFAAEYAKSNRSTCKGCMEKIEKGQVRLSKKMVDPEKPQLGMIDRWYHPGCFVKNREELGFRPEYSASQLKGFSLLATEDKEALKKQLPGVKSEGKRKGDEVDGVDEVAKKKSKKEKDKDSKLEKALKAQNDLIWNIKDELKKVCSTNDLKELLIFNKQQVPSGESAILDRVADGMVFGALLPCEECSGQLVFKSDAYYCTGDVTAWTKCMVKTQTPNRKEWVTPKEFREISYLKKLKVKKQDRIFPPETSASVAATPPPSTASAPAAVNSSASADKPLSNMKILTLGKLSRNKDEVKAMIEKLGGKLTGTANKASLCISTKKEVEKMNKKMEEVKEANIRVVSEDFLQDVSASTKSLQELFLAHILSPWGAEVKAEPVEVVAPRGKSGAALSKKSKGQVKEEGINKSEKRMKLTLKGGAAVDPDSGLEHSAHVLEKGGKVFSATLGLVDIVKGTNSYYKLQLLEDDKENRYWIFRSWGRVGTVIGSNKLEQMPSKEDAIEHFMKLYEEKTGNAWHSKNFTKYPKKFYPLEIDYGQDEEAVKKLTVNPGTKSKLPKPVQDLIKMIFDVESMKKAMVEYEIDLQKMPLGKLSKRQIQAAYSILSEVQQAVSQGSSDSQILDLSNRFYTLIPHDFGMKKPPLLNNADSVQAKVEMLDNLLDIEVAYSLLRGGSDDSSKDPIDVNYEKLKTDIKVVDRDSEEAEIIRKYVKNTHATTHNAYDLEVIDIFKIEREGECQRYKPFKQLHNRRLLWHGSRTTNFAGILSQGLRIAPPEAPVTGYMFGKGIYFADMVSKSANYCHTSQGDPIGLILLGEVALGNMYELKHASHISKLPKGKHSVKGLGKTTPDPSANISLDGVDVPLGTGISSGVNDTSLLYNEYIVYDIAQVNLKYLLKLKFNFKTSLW
row,IC50 [nM],Compound
1,< 100,"4-(3-(1-(3,3-dimethylbutanoyl)-4-oxido-1,4-azaphosphinan-4-yl)-4-fluorobenzyl)phthalazin-1(2H)-one [Example 5]"
2,100 to 1000,"4-(3-(1-(3-chloro-5-(trifluoromethyl)pyridin-2-yl)-4-oxido-1,4-azapbosphinan-4-yl)-4-fluorobenzyl)phthalazin-1(2H)-one [Example 20]"
3,< 100,"4-(4-fluoro-3-(4-oxido-1-pivaloyl-1,4-azaphosphinan-4-yl)benzyl)phthalazin-1(2H)-one [Example 8]"
4,< 100,"O=c1[nH]nc(C(O)c2ccc(F)c(P3(=O)CCN(C4CC4)CC3)c2)c2ccccc12 (racemic) [Example 58, (±)-4-[(3-(1-cyclopropyl-4-oxido-1,4-azaphosphinan-4-yl)-4-fluoro-1-phenyl)(hydroxymethyl)]phthalazin-1(2H)-one]"
5,1000 to 10000,"O=C(C1CCCC1)N1CCP(=O)(c2cc(Cc3n[nH]c(=O)c4ccccc34)ccc2F)CC1 [Example 2, 4-(3-(1-(cyclopentanecarbonyl)-4-oxido-1,4-azaphosphinan-4-yl)-4-fluorobenzyl)phthalazin-1 (2H)-one]"
6,100 to 1000,"CN(C)C(=O)N1CCP(=O)(c2cc(Cc3n[nH]c(=O)c4ccccc34)ccc2F)CC1 [Example 9, 4-(2-fluoro-5-((4-oxo-3,4-dihydrophthalazin-1-yl)methyl)phenyl)-N,N-dimethyl-1,4-azaphosphinane-1-carboxamide 4-oxide]"
7,100 to 1000,O=C(N1CCCC1)N1CCP(=O)(c2cc(Cc3n[nH]c(=O)c4ccccc34)ccc2F)CC1 [Example 10]
8,< 100,"O=c1[nH]nc(Cc2ccc(F)c(P3(=O)CCN(c4ccc(Cl)nn4)CC3)c2)c2ccccc12 [Example 13, 4-(3-(1-(6-chloropyridazin-3-yl)-4-oxido-1,4-azaphosphinan-4-yl)-4-fluorobenzyl)phthalazin-1(2H)-one]"
9,< 100,"N#Cc1ccc(N2CCP(=O)(c3cc(Cc4n[nH]c(=O)c5ccccc45)ccc3F)CC2)nc1 [Example 14, 6-(4-(2-fluoro-5-((4-oxo-3,4-dihydrophthalazin-1-yl)methyl)phenyl)-4-oxido-1,4-azaphosphinan-1-yl)nicotinonitrile]"
10,1000 to 10000,"N#Cc1ccc(N2CCP(=O)(c3cc(Cc4n[nH]c(=O)c5ccccc45)ccc3F)CC2)cc1 [Example 15, 4-(4-(2-fluoro-5-((4-oxo-3,4-dihydrophthalazin-1-yl)methyl)phenyl)-4-oxido-1,4-azaphosphinan-1-yl)benzonitrile]"
11,< 100,"N#Cc1cccnc1N1CCP(=O)(c2cc(Cc3n[nH]c(=O)c4ccccc34)ccc2F)CC1 [Example 16, 2-(4-(2-fluoro-5-((4-oxo-3,4-dihydrophthalazin-1-yl)methyl)phenyl)-4-oxido-1,4-azaphosphinan-1-yl)nicotinonitrile]"
12,< 100,"O=c1[nH]nc(Cc2ccc(F)c(P3(=O)CCN(c4ccnc(Cl)n4)CC3)c2)c2ccccc12 [Example 17, 4-(3-(1-(2-chloropyrimidin-4-yl)-4-oxido-1,4-azaphosphinan-4-yl)-4-fluorobenzyl)phthalazin-1(2H)-one]"
13,< 100,"O=c1[nH]nc(Cc2ccc(F)c(P3(=O)CCN(c4nccc(Cl)n4)CC3)c2)c2ccccc12 [Example 18, 4-(3-(1-(4-chloropyrimidin-2-yl)-4-oxido-1,4-azaphosphinan-4-yl)-4-fluorobenzyl)phthalazin-1(2H)-one]"
14,< 100,"O=c1[nH]nc(Cc2ccc(F)c(P3(=O)CCN(c4ccccn4)CC3)c2)c2ccccc12 [Example 19, 4-(4-fluoro-3-(4-oxido-1-(pyridin-2-yl)-1,4-azaphosphinan-4-yl)benzyl)phthalazin-1(2H)-one]"
15,< 100,"O=c1[nH]nc(Cc2ccc(F)c(P3(=O)CCN(c4ncnc5ccccc45)CC3)c2)c2ccccc12 [Example 21, 4-(4-fluoro-3-(4-oxido-1-(quinazolin-4-yl)-1,4-azaphosphinan-4-yl)benzyl)phthalazin-1(2H)-one]"
16,< 100,"O=c1[nH]nc(Cc2ccc(F)c(P3(=O)CCN(c4cc(Cl)ncn4)CC3)c2)c2ccccc12 [Example 22, 4-(3-(1-(6-chloropyrimidin-4-yl)-4-oxido-1,4-azaphosphinan-4-yl)-4-fluorobenzyl)phthalazin-1(2H)-one]"
17,< 100,"O=c1[nH]nc(Cc2ccc(F)c(P3(=O)CCN(c4ncccc4F)CC3)c2)c2ccccc12 [Example 23, 4-(4-fluoro-3-(1-(3-fluoropyridin-2-yl)-4-oxido-1,4-azaphosphinan-4-yl)benzyl)phthalazin-1(2H)-one]"
18,< 100,"O=c1[nH]nc(Cc2ccc(F)c(P3(=O)CCN(c4ccc(C(F)(F)F)cn4)CC3)c2)c2ccccc12 [Example 24, 4-(4-fluoro-3-(4-oxido-1-(5-(trifluoromethyl)pyridin-2-yl)-1,4-azaphosphinan-4-yl)benzyl)phthalazin-1(2H)-one]"
19,< 100,"O=c1[nH]nc(Cc2ccc(F)c(P3(=O)CCN(c4cc(C(F)(F)F)ccn4)CC3)c2)c2ccccc12 [Example 26, 4-(4-fluoro-3-(4-oxido-1-(4-(trifluoromethyl)pyridin-2-yl)-1,4-azaphosphinan-4-yl)benzyl)phthalazin-1(2H)-one]"
20,100 to 1000,"O=c1[nH]nc(Cc2ccc(F)c(P3(=O)CCN(c4ncccc4C(F)(F)F)CC3)c2)c2ccccc12 [Example 27, 4-(4-fluoro-3-(4-oxido-1-(3-(trifluoromethyl)pyridin-2-yl)-1,4-azaphosphinan-4-yl)benzyl)phthalazin-1(2H)-one]"
21,< 100,"O=c1[nH]nc(Cc2ccc(F)c(P3(=O)CCN(c4ncc(F)cc4F)CC3)c2)c2ccccc12 [Example 28, 4-(4-fluoro-3-(1-(3,5-difluoropyridin-2-yl)-4-oxido-1,4-azaphosphinan-4-yl)benzyl)phthalazin-1(2H)-one]"
22,< 100,"O=c1[nH]nc(Cc2ccc(F)c(P3(=O)CCN(c4ncc5ccccc5n4)CC3)c2)c2ccccc12 [Example 30, 4-(4-fluoro-3-(4-oxido-1-(quinazolin-2-yl)-1,4-azaphosphinan-4-yl)benzyl)phthalazin-1(2H)-one]"
23,100 to 1000,"O=c1[nH]nc(Cc2ccc(F)c(P3(=O)CCN(c4cccc(C(F)(F)F)n4)CC3)c2)c2ccccc12 [Example 31, 4-(4-fluoro-3-(4-oxido-1-(6-(trifluoromethyl)pyridin-2-yl)-1,4-azaphosphinan-4-yl)benzyl)phthalazin-1(2H)-one]"
24,< 100,"CC(=O)c1cccnc1N1CCP(=O)(c2cc(Cc3n[nH]c(=O)c4ccccc34)ccc2F)CC1 [Example 34, 4-(4-fluoro-3-(4-oxido-1-(3-(acetyl)pyridin-2-yl)-1,4-azaphosphinan-4-yl)benzyl)phthalazin-1(2H)-one]"
25,< 100,"O=c1[nH]nc(Cc2ccc(F)c(P3(=O)CCN(c4ncc(Cl)cn4)CC3)c2)c2ccccc12 [Example 36, 4-(4-fluoro-3-(4-oxido-1-(5-(chloro)pyrimidin-2-yl)-1,4-azaphosphinan-4-yl)benzyl)phthalazin-1(2H)-one]"
26,100 to 1000,"CCCc1cnc(N2CCP(=O)(c3cc(Cc4n[nH]c(=O)c5ccccc45)ccc3F)CC2)nc1 [Example 37, 4-(4-fluoro-3-(4-oxido-1-(5-(n-propyl)pyrimidin-2-yl)-1,4-azaphosphinan-4-yl)benzyl)phthalazin-1(2H)-one]"
27,< 100,"O=c1[nH]nc(Cc2ccc(F)c(P3(=O)CCN(C4CC4)CC3)c2)c2ccccc12 [Example 38, 4-(3-(1-cyclopropyl-4-oxido-1,4-azaphosphinan-4-yl)-4-fluorobenzyl)phthalazin-1(2H)-one]"
28,< 100,"O=c1[nH]nc(Cc2ccc(F)c(P3(=O)CCN(C4CCC4)CC3)c2)c2ccccc12 [Example 39, 4-(3-(1-cyclobutyl-4-oxido-1,4-azaphosphinan-4-yl)-4-fluorobenzyl)phthalazin-1(2H)-one]"
29,100 to 1000,"CN1CCP(=O)(c2cc(Cc3n[nH]c(=O)c4ccccc34)ccc2F)CC1 [Example 40, 4-(4-fluoro-3-(1-methyl-4-oxido-1,4-azaphosphinan-4-yl)benzyl)phthalazin-1(2H)-one]"
30,< 100,"CCN1CCP(=O)(c2cc(Cc3n[nH]c(=O)c4ccccc34)ccc2F)CC1 [Example 41, 4-(3-(1-ethyl-4-oxido-1,4-azaphosphinan-4-yl)-4-fluorobenzyl)phthalazin-1(2H)-one]"

row,Compound,IC50 [nM]
1,"4-(3-(1-(3,3-difluoropyrrolidine-1-carbonyl)-4-oxido-1,4-azaphosphinan-4-yl)-4-fluorobenzyl)phthalazin-1(2H)-one [Example 6]",< 100
2,"4-(3-(1-(cyclobutanecarbonyl)-4-oxido-1,4-azaphosphinan-4-yl)-4-fluorobenzyl)phthalazin-1(2H)-one [Example 4]",< 100
3,"4-(3-(1-(cyclopropanecarbonyl)-4-oxido-1,4-azaphosphinan-4-yl)-4-fluorobenzyl)phthalazin-1(2H)-one [Example 3]",< 100
4,"4-(4-fluoro-3-(4-oxido-1-(tetrahydrofuran-2-carbonyl)-1,4-azaphosphinan-4-yl)benzyl)phthalazin-1(2H)-one [Example 7]",100 to 1000
5,"O=c1[nH]nc(Cc2ccc(F)c(P3(=O)CCN(Cc4ccccc4)CC3)c2)c2ccccc12 [Example 1, 4-(3-(1-benzyl-4-oxido-1,4-azaphosphinan-4-yl)-4-fluorobenzyl)phthalazin-1(2H)-one]",< 100
6,"O=c1[nH]nc(Cc2ccc(F)c(P3(=O)CCN(c4cccc(F)n4)CC3)c2)c2ccccc12 [Example 25, 4-(4-fluoro-3-(1-(6-fluoropyridin-2-yl)-4-oxido-1,4-azaphosphinan-4-yl)benzyl)phthalazin-1(2H)-one]",< 100
